Like-named read-outs stand apart in the source and are kept apart here. Marks after values point to notes of the source that are not given here.
What was measured:
[1] = system: human oestrogen receptor α; parameters: method as in Watanabe et al. 2013; conditions: ref Watanabe et al. 2013, cited from earlier work
[2] = system: rats; conditions: cited from earlier work
[3] = Grouping and read-across of NOAEL (ECHA RAAF Scenario 5; analogue approach); conditions: for NOAEL for systemic repeated-dose toxicity and DART: predicted by read-across from the respective paraben (analogue approach)
Excerpt: The strength of evidence for the respective AEs was scored by the assessment options indicated in the RAAF ranging from Score 5 (acceptable with high confidence) to Score 1 (not acceptable) (ECHA [2017b]).

[4] = Octanol–water partition coefficient (Log Kow); format: physicochemical; conditions: 23 °C, OECD TG 107
Excerpt: (§1) Generally, these parabens have very similar physico-chemical properties.

[5] = system: rats; conditions: cited from earlier work; remark: listed apart in the source
[6] = system: bacteria; conditions: ref ECHA dissemination portal, cited from earlier work
[7] = system: rats; conditions: acute oral, ref ECHA dissemination portal, cited from earlier work
[8] = system: human oestrogen receptor β; parameters: method as in Watanabe et al. 2013; conditions: among 12 linear n-alkyl parabens C1 to C12; ref Watanabe et al. 2013; cited from earlier work
[9] = system: rats; conditions: cited from earlier work; remark: listed apart in the source
[10] = cited from earlier work
[11] = system: mammalian cells; conditions: OECD 476; ref ECHA dissemination portal; cited from earlier work
[12] = Acid dissociation constant (pKa); format: physicochemical
Excerpt: as §1

[13] = in vivo; conditions: for concentration at 1 h / Tmax / AUC(0-t) / Cmax: Wistar, rat, in vivo; for Tmax / AUC(0-t) / Cmax: po; for AUC(0-t) / Cmax / AUC0-1 h/AUC0–t / C1h/Cmax / Clast / tlast: parent compound
Description: These studies were conducted similarly to OECD TG 417 applying 500 and 1000 mg/kg body weight (bw) test item via oral gavage to 10 males and 10 females per dose group. Focus of the toxicokinetic evaluation was on the measurement of the serum concentrations of the parent compounds and their (common) major metabolite p-hydroxybenzoic acid by […] in order to assess the systemic uptake and elimination of the parent compounds and this major metabolite [see also ECHA ([2017a])]. The limit of quantification was determined as 10 ng/mL for all parabens, and as 130 ng/mL for p-hydroxybenzoic acid. […] On account of these major aims, investigations of the faeces and urine were not included in the toxicokinetics screening studies.

[14] = system: rabbits; parameters: method as in ECHA dissemination portal; conditions: acute dermal exposure, ref ECHA dissemination portal; cited from earlier work
[15] = system: male rats; parameters: method as in Hoberman et al. 2008; conditions: up to 10,000 ppm, corresponding to 1088 ± 68 mg/kg bw/day; ref Hoberman et al. 2008; cited from earlier work
[16] = system: rats; conditions: cited from earlier work; remark: listed apart in the source
[17] = ref Yalkowsky and He (2003); cited from earlier work
[18] = ref Dymicky and Huhtanen (1979), cited in CIR (2008); cited from earlier work
[19] = system: oestrogen receptors; parameters: method as in Byford et al. 2002; conditions: ref Byford et al. 2002; cited from earlier work
[20] = parameters: method as in Hansch et al. (1995); conditions: ref Hansch et al. (1995); cited from earlier work
[21] = system: rats; conditions: 5,000, 15,000 and 40,000 ppm in feed, ref Hubbard et al. 2020, cited from earlier work
[22] = system: Wistar rats; parameters: method as in Zhang et al. 2014; conditions: 400 and 1000 mg/kg bw/day oral gavage; ref Zhang et al. 2014; cited from earlier work
[23] = sodium salt, read-across from the respective paraben

Question: With `CCCCCCCOC(=O)c1ccc(O)cc1` [heptyl paraben] as the compound, how does the “Concentration of highest potency in activating the receptor” value ([1]; among 12 linear n-alkyl parabens C1 to C12) read?
Answer: 10^–7 M

Question: For `CCCOC(=O)c1ccc([O-])cc1.[Na+]` [Na-propyl paraben, Sodium propyl 4-HBA], which “Skin irritation/skin corrosion classification” value ([2]; rat, in vivo) is on record?
Answer: Not irritating (OECD 404; 1982)

Question: What about the “NOAEL for systemic repeated-dose toxicity and DART” value [3] of the same compound?
Answer: 1000 mg/kg bw/day

Question: What about the “Log Kow” value ([4]; pH 10.8) of the same compound?
Answer: 0.27 at 23 °C, pH 10.8 (OECD TG 107)

Question: What about the “Eye irritation/eye corrosion classification” value ([5]; rat, in vivo) of the same compound?
Answer: Serious eye damage (OECD 405; 1983)

Question: And the “Mutagenicity in bacteria classification” value [6, 23]?
Answer: Not mutagenic (read-across from propyl paraben)

Question: What about the LD50 ([7]; rats, OECD 401) of the same compound?
Answer: > 5000 OECD 401; 1982) mg/kg bw

Question: For `CCCCCOC(=O)c1ccc(O)cc1` [pentyl paraben], which “Concentration of highest potency in activating the receptor” value [8] is on record?
Answer: 10^–8 M

Question: Which “Skin irritation/skin corrosion classification” value ([2]; rat, in vivo) does the source give for `CCOC(=O)c1ccc([O-])cc1.[Na+]` [Na-ethyl paraben, Sodium ethyl 4-HBA] here?
Answer: Not irritating (OECD 404; 1981)

Question: And the “NOAEL for systemic repeated-dose toxicity and DART” value [3]?
Answer: 1000 mg/kg bw/day

Question: What about the “Log Kow” value ([4]; pH 10.4) of the same compound?
Answer: -0.14 at 23 °C, pH 10.4 (OECD TG 107)

Question: What about the “Eye irritation/eye corrosion classification” value ([5]; rat, in vivo) of the same compound?
Answer: Irritating (OECD 405; 1982)

Question: What about the “Mutagenicity in bacteria classification” value [6, 23] of the same compound?
Answer: Not mutagenic (read-across from ethyl paraben)

Question: And the Skin sensitisation classification ([9]; rat, in vivo)?
Answer: Not sensitising (read-across from ethyl paraben)

Question: And the LD50 ([7]; rats, OECD 401)?
Answer: 3100 OECD 401; 1982) mg/kg bw

Question: Which “Systemic toxicity and DART” value ([10]; ref ECHA registration dossier 15944) does the source give for `O=C(O)c1ccc(O)cc1` [p-hydroxybenzoic acid] here?
Answer: no systemic toxicity and no DART

Question: And the Endocrine activity ([10]; substance evaluation, REACH Article 48, ref ECHA 2014)?
Answer: does not exhibit any endocrine activity

Question: What does the source list for `COC(=O)c1ccc([O-])cc1.[Na+]` [Na-methyl paraben, Sodium methyl 4-HBA]?
Answer: Mutagenicity in mammalian cells classification [11]: Not mutagenic [a] (OECD 476; 2012); pKa [12]: 8.4 (OECD TG 112); Mutagenicity in bacteria classification ([6]; OECD 471): Not mutagenic [a] (OECD 471; 2012)

Question: With `CCCCOC(=O)c1ccc(O)cc1` [Butyl paraben, Butyl 4-hydroxybenzoate] as the compound, how does the “Skin irritation/skin corrosion classification” value ([2]; read-across from iso-butyl paraben, OECD 439, ref ECHA dissemination portal) read?
Answer: Irritating (read-across; OECD 439; 2016) [a]

Question: What about the concentration at 1 h ([13]; female, 500 mg/kg) of the same compound?
Answer: 31.5 ng/mL

Question: What about the concentration at 1 h ([13]; female, 1000 mg/kg) of the same compound?
Answer: 59.1 ng/mL

Question: And the Tmax ([13]; female, 500 mg/kg)?
Answer: 4.8 min

Question: What about the AUC(0-t) ([13]; female, 500 mg/kg, AUC0-1 h) of the same compound?
Answer: 149 ng·h/mL

Question: What about the AUC(0-t) ([13]; female, 500 mg/kg, AUC0–t) of the same compound?
Answer: 336 ng·h/mL

Question: What about the Cmax ([13]; female, 500 mg/kg) of the same compound?
Answer: 741 ng/mL

Question: And the Tmax ([13]; female, 1000 mg/kg)?
Answer: 4.8 min

Question: What about the AUC(0-t) ([13]; female, 1000 mg/kg, AUC0-1 h) of the same compound?
Answer: 191 ng·h/mL

Question: And the AUC(0-t) ([13]; female, 1000 mg/kg, AUC0–t)?
Answer: 404 ng·h/mL

Question: What about the Cmax ([13]; female, 1000 mg/kg) of the same compound?
Answer: 854 ng/mL

Question: And the concentration at 1 h ([13]; male, 500 mg/kg)?
Answer: 161 ng/mL

Question: What about the concentration at 1 h ([13]; male, 1000 mg/kg) of the same compound?
Answer: 373 ng/mL

Question: What about the AUC(0-t) ([13]; male, 500 mg/kg, AUC0-1 h) of the same compound?
Answer: 300 ng·h/mL

Question: What about the AUC(0-t) ([13]; male, 500 mg/kg, AUC0–t) of the same compound?
Answer: 705 ng·h/mL

Question: What about the Cmax ([13]; male, 500 mg/kg) of the same compound?
Answer: 1770 ng/mL

Question: What about the AUC(0-t) ([13]; male, 1000 mg/kg, AUC0-1 h) of the same compound?
Answer: 860 ng·h/mL

Question: What about the AUC(0-t) ([13]; male, 1000 mg/kg, AUC0–t) of the same compound?
Answer: 1580 ng·h/mL

Question: What about the Cmax ([13]; male, 1000 mg/kg) of the same compound?
Answer: 6520 ng/mL

Question: And the Cmax ([13]; male, 1000 mg/kg, males)?
Answer: 7000 ng/mL

Question: And the “AUC0-1 h/AUC0–t” value ([13]; 500 mg/kg, female)?
Answer: 44%

Question: And the C1h/Cmax ([13]; 500 mg/kg, female)?
Answer: 4.3%

Question: What about the Clast ([13]; 500 mg/kg, female) of the same compound?
Answer: 23.9 ng/mL

Question: What about the tlast ([13]; 500 mg/kg, female) of the same compound?
Answer: 8.0 h

Question: And the “AUC0-1 h/AUC0–t” value ([13]; 500 mg/kg, male)?
Answer: 43%

Question: What about the C1h/Cmax ([13]; 500 mg/kg, male) of the same compound?
Answer: 9.1%

Question: And the Clast ([13]; 500 mg/kg, male)?
Answer: 49.2 ng/mL

Question: What about the tlast ([13]; 500 mg/kg, male) of the same compound?
Answer: 8.0 h

Question: And the “AUC0-1 h/AUC0–t” value ([13]; 1000 mg/kg, female)?
Answer: 47%

Question: What about the C1h/Cmax ([13]; 1000 mg/kg, female) of the same compound?
Answer: 6.9%

Question: What about the Clast ([13]; 1000 mg/kg, female) of the same compound?
Answer: 23.6 ng/mL

Question: What about the tlast ([13]; 1000 mg/kg, female) of the same compound?
Answer: 8.0 h

Question: And the “AUC0-1 h/AUC0–t” value ([13]; 1000 mg/kg, male)?
Answer: 54%

Question: What about the C1h/Cmax ([13]; 1000 mg/kg, male) of the same compound?
Answer: 5.7%

Question: And the Clast ([13]; 1000 mg/kg, male)?
Answer: 18.4 ng/mL

Question: And the tlast ([13]; 1000 mg/kg, male)?
Answer: 8.0 h

Question: And the “NOAEL for repeated-dose toxicity and DART” value ([3]; extrapolation, appears justifiable)?
Answer: 1000 mg/kg bw/day

Question: What about the NOAEL [14] of the same compound?
Answer: [b] A further acute toxicity study was conducted as dermal exposure study in rabbits yielding NOAEL > 2000 mg/kg bw

Question: What about the “Eye irritation/eye corrosion classification” value ([5]; read-across from iso-butyl paraben, OECD 437, ref ECHA dissemination portal) of the same compound?
Answer: Ser. eye damage (read-across; OECD 437; 2016) [a]

Question: What about the “Mutagenicity in bacteria classification” value ([6]; read-across from iso-butyl paraben, OECD 471) of the same compound?
Answer: Not mutagenic (read-across; OECD 471; 2016) [a]

Question: What about the “Effects in male rats” value [15] of the same compound?
Answer: no effects

Question: What about the “NOAEL, point-of-departure” value ([16]; derived from Zhang et al. (2014), ref CIR 2019) of the same compound?
Answer: 160 mg/kg bw/day

Question: And the NOEL ([16]; juvenile rats, subcutaneous, 17 days (PND 2-18), single dose tested (Fisher et al. 1999), ref SCCS 2010)?
Answer: 2 mg/kg bw/day

Question: What about the Skin sensitisation classification ([9]; read-across from iso-butyl paraben, OECD 429, ref ECHA dissemination portal) of the same compound?
Answer: Not sensitising (read-across; OECD 429; 2016) [a]

Question: What about the Water solubility [17] of the same compound?
Answer: Insoluble [e]

Question: And the pKa [18]?
Answer: 8.37 [c]

Question: And the “Rank of oestrogen receptor activation among shorter-chained parabens” value [19]?
Answer: the most activation

Question: And the “Log Kow” value [20]?
Answer: 3.54 [d]

Question: What about the LD50 ([7]; OECD 423, read-across from iso-butyl paraben) of the same compound?
Answer: > 2000 (read across; OECD 423; 2018) [a, b] mg/kg bw

Question: And the “Adverse alterations of fertility, fecundity, pubertal attainment or any reproductive parameters” value ([21]; parent, first, second generation)?
Answer: no association

Question: What about the Liver findings [21] of the same compound?
Answer: exposure-dependent increases in liver weight and incidences of non-neoplastic liver lesions

Question: What about the “Epididymal sperm count and daily sperm production” value [22] of the same compound?
Answer: dose-dependently reduced epididymal sperm count and daily sperm production

Question: With `C[C@]12CC[C@@H]3c4ccc(O)cc4CC[C@H]3[C@@H]1CC[C@@H]2O` [17β-estradiol, reference compound] as the compound, how does the “Concentration of receptor effects” value ([1]; receptor subtype not stated) read?
Answer: 2.5 × 10^–12
